Where “and” joins values, the source holds several entries; their conditions need not be identical. Equal entries are not always repeated. Structures can show the parent of a compound that is named as a salt. Where two headings read alike, the source gives them in different places. Marks after values point to notes of the source that are not given here.
How the values were obtained:
[1] = system: CYP1A2 (aryl hydrocarbon receptor); experiment: In vitro metabolic gene induction studies; assay type: cell-based, human
Protocol: Anticonvulsant Screening prog ram
Test 28 - In Vitro Metabolic Gene Induction Studies
SolventCode: DMSO Solvent Prep: Unit: uM
Cell line source: Puracyp Molecular 257.7590
DateStarted: O5+eb-2O1O Date Completed: 15+eb-2010 Weig ht:
Reference: Lamb boolc#t! p9.77
lsoform Code: CyplAz Cell line: lAzDRE
Inducffon mechanism: aryl hydrocarbon receptor
Concentration Induction Cell
Fold +/- S.D Viability +/- S.D
0 1 +t- o.cs n 1n +L 2.2o n
Max induction 2 fold @ 200uM
. '^ (calculated): slgnificant decrease in viability at this concentation in vitso.
(1 picture or pasted object on this page, not shown here)

[2] = system: mice; experiment: Picrotoxin-induced seizures; assay type: in vivo; conditions: ip
[3] = system: Salmonella enterica sv. Typhimurium TA 98; experiment: Ames test
Protocol: The test was performed according to a modified pre-incubation method [34]. The test compound was dissolved in DMSO and mixed with 20% (final concentration) cytochrome P450-enriched rat liver S9 post-mitochondrial fraction (20% w/v liver homogenate in 0.25 M Sucrose) in a phosphate buffer and added to an overnight bacterial culture. The mixture was divided into two samples and NADPH added to one of the samples to determine if the test compound requires cytochrome P450 bioactivation to be mutagenic. Both reactions (± NADPH) were incubated at 37 °C for 30 min and then added to a top agar solution containing 0.6% agar, 0.05 mM histidine and 0.05 mM biotin and plated on minimal glucose agar plates. Revertant colonies were counted after a 48 h-incubation at 37 °C. […] Acridine orange at 0.02 mM was also included as a positive control.

[4] = target: T1, hNav1.6 sodium channel (Homo sapiens, UniProt Q9UQD0); experiment: Nav channel electrophysiology (IonWorks Quattro); assay type: cell-based
T1 construct: host or cells: CHO cells
T1 sequence (Q9UQD0 whole entry): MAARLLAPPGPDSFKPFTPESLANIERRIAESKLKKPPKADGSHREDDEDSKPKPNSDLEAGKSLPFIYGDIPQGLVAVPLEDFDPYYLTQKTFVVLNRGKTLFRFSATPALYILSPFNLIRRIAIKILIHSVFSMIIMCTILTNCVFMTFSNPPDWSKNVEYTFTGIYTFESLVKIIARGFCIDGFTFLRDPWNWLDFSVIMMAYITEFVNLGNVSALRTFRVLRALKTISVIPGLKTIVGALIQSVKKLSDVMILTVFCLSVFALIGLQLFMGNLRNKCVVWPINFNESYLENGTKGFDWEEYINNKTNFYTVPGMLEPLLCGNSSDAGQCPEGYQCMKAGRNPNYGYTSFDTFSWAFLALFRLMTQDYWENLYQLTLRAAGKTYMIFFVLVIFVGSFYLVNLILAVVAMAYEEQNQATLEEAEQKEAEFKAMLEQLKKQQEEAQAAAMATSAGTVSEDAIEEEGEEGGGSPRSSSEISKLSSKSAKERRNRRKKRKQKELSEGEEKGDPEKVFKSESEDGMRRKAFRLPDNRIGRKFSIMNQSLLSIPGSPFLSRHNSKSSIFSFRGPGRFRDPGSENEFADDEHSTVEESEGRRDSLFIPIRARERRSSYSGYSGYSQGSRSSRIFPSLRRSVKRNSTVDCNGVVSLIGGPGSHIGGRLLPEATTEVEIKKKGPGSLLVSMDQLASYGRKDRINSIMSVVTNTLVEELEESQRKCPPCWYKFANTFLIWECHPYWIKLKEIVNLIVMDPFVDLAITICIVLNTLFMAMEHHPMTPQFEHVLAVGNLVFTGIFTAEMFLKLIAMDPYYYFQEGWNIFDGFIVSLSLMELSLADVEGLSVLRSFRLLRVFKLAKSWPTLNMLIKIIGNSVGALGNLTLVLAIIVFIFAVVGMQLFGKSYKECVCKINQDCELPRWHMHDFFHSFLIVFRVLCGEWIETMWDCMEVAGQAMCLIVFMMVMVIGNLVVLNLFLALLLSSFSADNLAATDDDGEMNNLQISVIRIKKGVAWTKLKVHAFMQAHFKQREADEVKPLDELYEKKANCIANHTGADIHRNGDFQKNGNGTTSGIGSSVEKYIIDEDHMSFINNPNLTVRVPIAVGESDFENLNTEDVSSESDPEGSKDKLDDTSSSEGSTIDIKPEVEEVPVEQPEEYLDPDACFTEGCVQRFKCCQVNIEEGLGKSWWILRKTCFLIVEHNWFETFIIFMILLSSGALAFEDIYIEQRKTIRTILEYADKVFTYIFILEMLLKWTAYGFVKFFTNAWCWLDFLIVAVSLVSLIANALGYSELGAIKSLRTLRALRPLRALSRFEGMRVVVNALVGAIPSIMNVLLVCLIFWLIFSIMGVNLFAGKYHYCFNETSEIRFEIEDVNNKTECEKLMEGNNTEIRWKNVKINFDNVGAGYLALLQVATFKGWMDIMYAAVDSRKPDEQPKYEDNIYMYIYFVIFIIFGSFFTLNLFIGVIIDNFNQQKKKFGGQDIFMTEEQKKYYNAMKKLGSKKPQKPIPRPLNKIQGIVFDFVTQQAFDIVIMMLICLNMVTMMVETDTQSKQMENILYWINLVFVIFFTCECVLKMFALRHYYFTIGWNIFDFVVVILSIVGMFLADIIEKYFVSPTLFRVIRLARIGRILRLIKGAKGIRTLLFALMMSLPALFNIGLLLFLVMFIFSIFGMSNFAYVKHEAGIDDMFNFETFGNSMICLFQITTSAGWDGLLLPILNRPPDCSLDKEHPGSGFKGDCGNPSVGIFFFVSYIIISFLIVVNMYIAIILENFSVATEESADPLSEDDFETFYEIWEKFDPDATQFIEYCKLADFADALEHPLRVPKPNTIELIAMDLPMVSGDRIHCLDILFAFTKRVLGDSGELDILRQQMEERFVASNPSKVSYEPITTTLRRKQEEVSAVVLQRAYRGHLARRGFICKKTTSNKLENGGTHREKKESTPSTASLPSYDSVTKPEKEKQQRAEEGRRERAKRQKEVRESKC

[5] = pKa by potentiometric titration; assay type: physicochemical; conditions: aqueous solution titrated with 0.051 M NaOH; 37 °C
Protocol: pKa. The assay was performed by potentiometric titration, at 37 °C. The method is based on the additional portions of 0.051 M NaOH solution to the aqueous solution of test compounds, on electromagnetic stirrer with contact thermometer (Heidolph MR Hei-Standard). NaOH solution was added in 500 μL portions using Eppendorf automatic pipette. Waiting a few seconds after each titrant addition allowed the solution temperature to stabilize. After this time pH was recorded with the use of pH-meter CP-551 (Elmetron) for precise determination of pH in laboratory conditions (pH 0–14; pH accuracy ± 0.01) with combined chloride electrode OSH-10-10 (enables measurements in the temperature range 0–60 °C and pH range 1–12). Then, next portion of titrant was added. Titration was completed after 15 mL of NaOH solution was added. Threefold repetitions of titration were applied. pKa of the tested compound was calculated on the basis of the pH values obtained.

[6] = system: guinea pigs; experiment: Infiltration anesthesia (intradermal wheal test); assay type: in vivo
Protocol: A painful reaction to a prick of the skin at the centre of the wheal three times and every 5 s with 5 min intervals during the first 30 min of observation was tested. The experiment was continued to achieve a return of a reaction to the prick. The control wheal was done by an intradermal injection of 0.1 mL of 0.9% NaCl [25]. Local anesthesia was determined by calculating the ratio of the number of positive responses (no flinch) to the number of negative responses (flinch).

[7] = target: T2, hNav1.4 sodium channel (Homo sapiens, UniProt P35499); experiment: Nav channel electrophysiology (IonWorks Quattro); assay type: cell-based
T2 construct: host or cells: CHO cells

[8] = system: rats; experiment: Sciatic nerve ligation (SNL) model, von Frey test; assay type: in vivo; conditions: rats; for Threshold ± S.E.M. / % Pre-Drug ± S.E.M.: 6 mg/kg b.w., i.p.
[9] = Tissue distribution; assay type: in vivo, rats; conditions: for t0.5λz / Cmax / MRT / Tmax / Kp / k el: 5 mg/kg iv; for Kp: read-out: Kp (tissue-to-plasma AUC ratio); for k el: read-out: λz (converted);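 for all read-outs here: organ homogenates in PBS analysed by HPLC after FMOC-Cl derivatization, non-compartmental analysis, Kp as tissue over plasma AUC, half-life taken as ln2 divided by λz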
Protocol: Pharmacokinetic study design. Male Wistar rats (250–300 g) bred in-house from progenitors obtained from Charles River Laboratories (Sulzfed, Germany) were used in this study. […] Moreover, this compound dissolved in the same solvent was administered orally (po) by oral gavage at two doses (50 and 100 mg/kg) (n = 4). Blood samples were collected from the catheter at various time points up to 5 h. […] The animals were anaesthetized (50/7.5 mg/kg ketamine/xylazine, ip) and sacrificed by decapitation at 5, 15, 30, 60, 120, 180, and 300 min after compound administration (n = 4 per time point). Blood was collected into heparinized tubes and organs such as liver, brain, lungs, kidneys, and heart were harvested. The blood samples were centrifuged at 4000 rpm for 10 min (EBA 12R, Hettich, Germany). Plasma and organs were stored at − 80 °C until analysis.
Before analysis, tissue samples were homogenized in phosphate-buffered saline, pH 7.4 (1:4, w/v) with a tissue homogenizer (TH220; Omni International, Inc., Warrenton, VA, USA). Plasma (100 μL) or homogenate samples (500 μL) were mixed with an internal standard (IS) solution (R-( +)-propranolol, 4 μg/mL in methanol). Then, 20 μL of sodium carbonate (0.125 M) was added to each tube and the samples were extracted with 3 mL of diethyl ether by vortexing for 1 min. After centrifugation (3000 rpm, 15 min), the organic phase was transferred to a new tube and evaporated to dryness under a gentle stream nitrogen at 37 °C in a water bath. The dry residue was reconstituted in 100 μL of acetonitrile. Subsequently, 50 μL of 0.2 M borate buffer (pH = 7.0) and 50 μL of 6 mM FMOC-Cl solution in acetonitrile were added. […] The reaction was stopped by the addition of 0.1 M solution of glycine in water (30 μL) and vortexing for 1 min. The reaction mixture was transferred directly into the autosampler vials. The chromatographic system (Merck-HITACHI, Japan) consisted of an L-2485 spectrofluorimetric detector operating at the excitation and emission wavelengths of 267 and 316 nm, respectively, an L-2130 pump, an L-2350 column oven, and an L-2200 autosampler. The EZChrom Elite Client/Server version 3.2 (Agilent Technologies Inc.) was used for data acquisition and processing. […] The column temperature was maintained at 50 °C. The mobile phase consisted of a mixture of acetonitrile and water (67:33, v/v), and pumped at a flow rate of 1 mL/min.
Pharmacokinetic data analysis. Plasma and tissue concentration versus time profiles were analyzed by the non-compartmental approach in Phoenix WinNonlin v. 6.3 software (Pharsight Corporation, Mountain View, CA, USA). The peak concentration (Cmax) and the time to reach Cmax (tmax) were obtained directly from individual concentration–time profiles. The initial concentration (C0) after an iv dosing was obtained by extrapolation to zero time. The linear trapezoidal rule was applied to calculate the areas under the concentration–time curve (AUC) from the time of dosing to the last measured data point (AUC0-t) or infinity (AUC0-∞). The terminal slope (λz) was estimated by linear regression and the terminal half-life (t0.5λz) was calculated as ln2/λz. The volume of distribution based on the terminal phase (Vz) was calculated as: Dose/(λz ∙ AUC0-∞), whereas clearance (CL) was obtained from the following equation: Dose/AUC0-∞. The mean residence time (MRT) was defined as: AUMC0-∞/AUC0-∞, where AUMC is the area under the first moment curve. The absolute bioavailability (Fa) was calculated according to the equation: (AUCpo./Dosepo)/(AUCiv/Doseiv).

[10] = system: STZ-treated mice; experiment: Streptozotocin-induced diabetic neuropathy, von Frey test; assay type: in vivo; conditions: for elevation of pain threshold (von Frey): STZ-treated mice
Protocol: Induction of diabetes. To induce diabetes the mice were injected with a single ip streptozotocin (STZ, Sigma-Aldrich, Germany) dose (200 mg/kg) dissolved in 0.1 N citrate buffer. Blood glucose levels were measured 1 h before and repeatedly 1, 2 and 3 weeks after STZ injection using a blood glucose monitoring system (AccuChek Active, Roche, France). Blood samples (5 µL) for the measurement of glucose concentration were obtained from the mouse tail vein. The animals were defined as diabetic when their blood glucose concentration exceeded 300 mg/dL and only those mice were used as diabetic mice in further tests. The body weight of mice was monitored 1 h before and 21 days after STZ injection.
Assessment of tactile allodynia in STZ-treated mice—von Frey test. Mechanical hyperalgesia was tested as previously described in detail [25] using the electronic von Frey device (Bioseb, France). Briefly, in a quiet room, mice were placed in test compartments on an elevated metal mesh grid and allowed to acclimate for 30 min. After a habituation period each mouse was tested 3 times in the plantar region of hind paw, to obtain baseline values. Subsequently, the mice were pre-treated with the tested compound dissolved in saline at doses 1, 10 and 30 mg/kg. Thirty minutes later the animals were tested again and mean values of mechanical withdrawal threshold were obtained for each mouse.

[11] = in vivo; conditions: rat, ip
Protocol: The assays were carried out within the Epilepsy Therapy Screening Program (ETSP, previously known as the Anticonvulsant Screening Program, ASP), Epilepsy Branch, National Institute of Neurological and Communicative Disorders and Stroke, National Institutes of Health in Rockville, MD, USA [23].
The obtained compounds were screened for antiseizure activity and neurotoxicity in vivo within the Epilepsy Therapy Screening Program (ETSP, previously known as the Anticonvulsant Screening Program, ASP), Epilepsy Branch, National Institute of Neurological and Communicative Disorders and Stroke, National Institutes of Health in Rockville, MD, USA [23].

[12] = MTT assay; assay type: cell-based, murine; conditions: mouse, astrocyte cell line (ATCC CRL-2541); 250 µM; read-out: cell viability compared to control
Protocol: Cells were seeded at a density of 1 × 10^4 cells per well in 96 well plates. […] Next, Crystal Dissolving Solution (Cayman) was added to each well.

[13] = target: T3, hNav1.5 sodium channel (Homo sapiens, UniProt Q14524); experiment: Nav channel electrophysiology (IonWorks Quattro); assay type: cell-based
T3 construct: host or cells: CHO cells
T3 sequence (Q14524 whole entry): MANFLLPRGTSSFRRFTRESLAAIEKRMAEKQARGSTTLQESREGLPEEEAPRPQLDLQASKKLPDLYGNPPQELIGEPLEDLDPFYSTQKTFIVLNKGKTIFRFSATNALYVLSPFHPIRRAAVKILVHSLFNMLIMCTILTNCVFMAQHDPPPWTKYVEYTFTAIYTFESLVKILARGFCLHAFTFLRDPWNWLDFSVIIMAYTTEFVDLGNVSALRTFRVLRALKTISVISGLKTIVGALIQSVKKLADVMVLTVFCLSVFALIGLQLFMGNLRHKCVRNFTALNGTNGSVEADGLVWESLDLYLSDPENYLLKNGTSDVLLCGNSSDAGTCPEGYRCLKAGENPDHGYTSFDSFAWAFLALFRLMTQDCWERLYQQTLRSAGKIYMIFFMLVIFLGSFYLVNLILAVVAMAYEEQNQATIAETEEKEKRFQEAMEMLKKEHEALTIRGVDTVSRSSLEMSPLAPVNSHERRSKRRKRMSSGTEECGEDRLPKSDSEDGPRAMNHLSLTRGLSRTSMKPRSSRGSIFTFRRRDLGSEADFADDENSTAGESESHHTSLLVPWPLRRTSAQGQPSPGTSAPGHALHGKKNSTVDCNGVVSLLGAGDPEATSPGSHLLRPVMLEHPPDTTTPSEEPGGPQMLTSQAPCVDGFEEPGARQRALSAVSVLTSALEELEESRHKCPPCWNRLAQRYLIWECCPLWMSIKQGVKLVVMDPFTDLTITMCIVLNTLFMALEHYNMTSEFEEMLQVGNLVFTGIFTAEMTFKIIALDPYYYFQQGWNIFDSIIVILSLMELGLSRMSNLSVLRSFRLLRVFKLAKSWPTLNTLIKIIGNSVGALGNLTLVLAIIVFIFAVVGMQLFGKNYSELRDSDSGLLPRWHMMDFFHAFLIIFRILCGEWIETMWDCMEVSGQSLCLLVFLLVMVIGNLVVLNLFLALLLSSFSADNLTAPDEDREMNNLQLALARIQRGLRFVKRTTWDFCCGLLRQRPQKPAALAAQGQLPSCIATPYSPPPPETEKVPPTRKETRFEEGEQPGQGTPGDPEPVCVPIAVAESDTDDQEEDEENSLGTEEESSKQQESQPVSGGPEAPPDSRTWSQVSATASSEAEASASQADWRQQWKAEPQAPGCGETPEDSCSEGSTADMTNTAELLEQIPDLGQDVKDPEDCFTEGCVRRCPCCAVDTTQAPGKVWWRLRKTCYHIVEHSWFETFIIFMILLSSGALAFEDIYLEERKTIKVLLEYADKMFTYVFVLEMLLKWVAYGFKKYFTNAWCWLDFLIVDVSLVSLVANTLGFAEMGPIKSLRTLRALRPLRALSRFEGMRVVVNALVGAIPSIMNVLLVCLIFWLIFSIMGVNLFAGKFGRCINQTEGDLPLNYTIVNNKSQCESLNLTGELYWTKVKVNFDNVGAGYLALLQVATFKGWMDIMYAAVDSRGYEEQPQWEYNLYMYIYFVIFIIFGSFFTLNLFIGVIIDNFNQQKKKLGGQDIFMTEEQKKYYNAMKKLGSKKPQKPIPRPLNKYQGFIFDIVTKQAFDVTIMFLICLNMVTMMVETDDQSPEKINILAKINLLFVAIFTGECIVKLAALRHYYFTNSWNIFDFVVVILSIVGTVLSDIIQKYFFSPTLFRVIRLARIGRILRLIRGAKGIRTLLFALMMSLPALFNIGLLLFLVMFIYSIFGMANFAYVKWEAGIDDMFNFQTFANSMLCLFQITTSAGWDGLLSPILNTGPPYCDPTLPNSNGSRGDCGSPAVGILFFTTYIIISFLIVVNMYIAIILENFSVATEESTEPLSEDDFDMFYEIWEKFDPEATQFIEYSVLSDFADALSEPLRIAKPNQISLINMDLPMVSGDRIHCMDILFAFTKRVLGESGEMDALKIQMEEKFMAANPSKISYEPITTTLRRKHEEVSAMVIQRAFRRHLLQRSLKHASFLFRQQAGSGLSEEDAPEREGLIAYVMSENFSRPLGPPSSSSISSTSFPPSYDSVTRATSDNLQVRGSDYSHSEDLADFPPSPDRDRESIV

[14] = target: T4, hERG (Homo sapiens, UniProt Q12809); experiment: Radioligand binding; conditions: read-out: % of control specific binding
T4 construct: purchased Eurofins CEREP
T4 sequence (Q12809 whole entry): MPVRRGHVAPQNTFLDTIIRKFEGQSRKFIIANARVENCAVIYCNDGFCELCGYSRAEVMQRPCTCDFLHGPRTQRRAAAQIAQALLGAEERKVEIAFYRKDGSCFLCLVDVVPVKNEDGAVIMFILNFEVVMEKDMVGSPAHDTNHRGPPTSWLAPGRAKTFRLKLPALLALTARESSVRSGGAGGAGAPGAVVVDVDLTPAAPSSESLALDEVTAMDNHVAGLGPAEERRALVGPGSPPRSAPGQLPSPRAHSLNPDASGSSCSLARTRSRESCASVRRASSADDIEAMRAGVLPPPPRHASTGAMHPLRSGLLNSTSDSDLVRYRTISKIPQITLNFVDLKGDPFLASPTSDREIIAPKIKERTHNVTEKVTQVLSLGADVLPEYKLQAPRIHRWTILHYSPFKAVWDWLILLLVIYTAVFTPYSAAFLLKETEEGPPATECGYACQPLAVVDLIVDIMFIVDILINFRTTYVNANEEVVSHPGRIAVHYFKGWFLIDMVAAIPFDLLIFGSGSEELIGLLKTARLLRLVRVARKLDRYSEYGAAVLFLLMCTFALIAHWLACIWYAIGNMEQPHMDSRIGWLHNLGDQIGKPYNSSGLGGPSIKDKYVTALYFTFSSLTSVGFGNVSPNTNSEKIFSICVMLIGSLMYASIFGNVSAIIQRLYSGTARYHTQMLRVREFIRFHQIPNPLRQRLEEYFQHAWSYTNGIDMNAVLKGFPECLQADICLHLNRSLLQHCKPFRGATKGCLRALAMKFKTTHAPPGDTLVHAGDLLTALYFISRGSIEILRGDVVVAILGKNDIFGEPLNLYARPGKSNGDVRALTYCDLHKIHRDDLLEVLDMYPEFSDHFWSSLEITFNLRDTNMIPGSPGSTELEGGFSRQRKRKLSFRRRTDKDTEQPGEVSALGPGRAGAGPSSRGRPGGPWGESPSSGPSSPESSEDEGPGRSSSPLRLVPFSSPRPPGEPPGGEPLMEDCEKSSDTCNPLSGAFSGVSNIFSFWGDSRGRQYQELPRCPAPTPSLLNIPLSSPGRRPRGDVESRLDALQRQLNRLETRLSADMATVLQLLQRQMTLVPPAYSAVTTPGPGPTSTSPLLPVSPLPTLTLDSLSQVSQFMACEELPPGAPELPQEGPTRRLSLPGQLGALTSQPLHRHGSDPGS
Protocol: Radioligand binding. Radioligand binding assays were performed at Eurofins CEREP (France). The results are expressed as a percent of control specific binding (measured specific binding*100/control specific binding) and as a percent inhibition of control specific binding (100-(measured specific binding*100)/control specific binding) obtained in the presence of the test compounds. The IC50 values (concentration causing a half-maximal inhibition of control specific binding) and Hill coefficients (nH) were determined by non-linear regression analysis of the competition curves generated with mean replicate values using Hill equation curve fitting (Y = D + [A-D]/[1 + (C/C50)^nH], where Y = specific binding, A = left asymptote of the curve, D = right asymptote of the curve, C = compound concentration, C50 = IC50, and nH = slope factor). […] The inhibition constants (Ki) were calculated using the Cheng Prusoff equation (Ki = IC50/[1 + L/KD], where L = concentration of radioligand in the assay, and KD = affinity of the radioligand for the receptor).

[15] = target: α1 (non-selective); experiment: Radioligand binding; set-up: species or system rat
Protocol: Radioligand binding. Radioligand binding assays were performed at Eurofins CEREP (France). The results are expressed as a percent of control specific binding (measured specific binding*100/control specific binding) and as a percent inhibition of control specific binding (100-(measured specific binding*100)/control specific binding) obtained in the presence of the test compounds. The IC50 values (concentration causing a half-maximal inhibition of control specific binding) and Hill coefficients (nH) were determined by non-linear regression analysis of the competition curves generated with mean replicate values using Hill equation curve fitting (Y = D + [A-D]/[1 + (C/C50)^nH], where Y = specific binding, A = left asymptote of the curve, D = right asymptote of the curve, C = compound concentration, C50 = IC50, and nH = slope factor). This analysis was performed using software developed at Cerep (Hill software) and validated by comparison with data generated by the commercial software SigmaPlot® 4.0 for Windows® (© 1997 by SPSS Inc.). The inhibition constants (Ki) were calculated using the Cheng Prusoff equation (Ki = IC50/[1 + L/KD], where L = concentration of radioligand in the assay, and KD = affinity of the radioligand for the receptor). A scatchard plot is used to determine the Kd.

For `CCC(CO)NCCOc1c(C)cccc1Cl` (stereo not drawn) [Compound 4, R,S-2-((2-(2-chloro-6-methylphenoxy)ethyl)amino)butan-1-ol], the EC50 ([1]; 1A2DRE cell line, read-out: EC50 (calculated)) was 37 µM, the “Max induction (calculated)” value ([1]; @ 200uM) was 2 fold and the “Picrotoxin-induced seizures ED50” value [2] was greater than 70 mg/kg. The “% of benzo[a]pyrene (+NADPH) control, + NADPH, Sample 1” value ([3]; 0.10 mM) was 7.8%, the “% of benzo[a]pyrene (+NADPH) control, + NADPH, Sample 2” value ([3]; 0.10 mM) was 7.8% and the “% of benzo[a]pyrene (+NADPH) control, − NADPH, Sample 1” value ([3]; 0.10 mM) was 5.5%. The “% of benzo[a]pyrene (+NADPH) control, − NADPH, Sample 2” value ([3]; 0.10 mM) was 7.4%, the “% of benzo[a]pyrene (+NADPH) control, + NADPH, Sample 1” value ([3]; 0.20 mM) was 5.2% and the “% of benzo[a]pyrene (+NADPH) control, + NADPH, Sample 2” value ([3]; 0.20 mM) was 7.4%. For the same compound, the “% of benzo[a]pyrene (+NADPH) control, − NADPH, Sample 1” value ([3]; 0.20 mM) was 5.4%, the “% of benzo[a]pyrene (+NADPH) control, − NADPH, Sample 2” value ([3]; 0.20 mM) was 5.3% and the “% of benzo[a]pyrene (+NADPH) control, + NADPH, Sample 1” value ([3]; 0.50 mM) was 5.2%. The “% of benzo[a]pyrene (+NADPH) control, + NADPH, Sample 2” value ([3]; 0.50 mM) was 7%, the “% of benzo[a]pyrene (+NADPH) control, − NADPH, Sample 1” value ([3]; 0.50 mM) was 4.9% and the “% of benzo[a]pyrene (+NADPH) control, − NADPH, Sample 2” value ([3]; 0.50 mM) was 6.7%. The mutagenicity ([3]; 0.1–0.5 mM, compared to DMSO solvent control) was “non-mutagenic”.
`CCC(CO)NCCOc1c(C)cccc1Cl` (stereo not drawn) [KM-408, R,S-2-((2-(2-chloro-6-methylphenoxy)ethyl)amino)butan-1-ol hydrochloride] gave an IC50 ([4]; 10 Hz) of 20.5 µM, an IC50 ([4]; Inactivated state) of less than 10 µM and an IC50 ([4]; Tonic block) of 60.1 µM. The pKa [5] was 9.5, the “Inhibition of pain reaction” value ([6]; 0.125%, 30 min) was 33.3* % and the “Inhibition of pain reaction” value ([6]; 0.125%, 60 min) was 38.9* %. For the same compound, the “Inhibition of pain reaction” value ([6]; 0.125%, 120 min) was 33.3* %, the “Inhibition of pain reaction” value ([6]; 0.5%, 30 min) was 93.3*** % and the “Inhibition of pain reaction” value ([6]; 0.5%, 60 min) was 81.2*** %. For the same compound, the “Inhibition of pain reaction” value ([6]; 0.5%, 120 min) was 66.7*** %, the “Inhibition of pain reaction” value ([6]; 0.5%, 240 min) was 20.0% and the “Inhibition of pain reaction” value ([6]; […], 30 min) was 81.2*** %. For the same compound, the “Inhibition of pain reaction” value ([6]; […], 60 min) was 64.7** %, the “Inhibition of pain reaction” value ([6]; […], 120 min) was 70.6*** % and the “Inhibition of pain reaction” value ([6]; […], 240 min) was 33.3* %. For the same compound, the “infiltration anesthesia: active at” value ([6]; guinea pigs) was 0.125%, the IC50 ([7]; 10 Hz) was 8.17 µM and the IC50 ([7]; Inactivated state) was less than 10 µM. The IC50 ([7]; Tonic block) was 68 µM, the “Threshold ± S.E.M.” value ([8]; 0.0 h (pre-drug)) was 2.88 ± 0.59 g and the “% Pre-Drug ± S.E.M.” value ([8]; 0.5 h) was 131 ± 15%. The “Threshold ± S.E.M.” value ([8]; 0.5 h) was 3.07 ± 0.51 g, the “% Pre-Drug ± S.E.M.” value ([8]; 1.0 h) was 202 ± 19% and the “Threshold ± S.E.M.” value ([8]; 1.0 h) was 5.94 ± 1.19 g. For the same compound, the “% Pre-Drug ± S.E.M.” value ([8]; 2.0 h) was 301 ± 45 %, the “Threshold ± S.E.M.” value ([8]; 2.0 h) was 8.23 ± 1.56 g and the “% Pre-Drug ± S.E.M.” value ([8]; 4.0 h) was 260 ± 39 %. For the same compound, the “Threshold ± S.E.M.” value ([8]; 4.0 h) was 7.09 ± 1.31 g, the “% Pre-Drug ± S.E.M.” value ([8]; 6.0 h) was 186 ± 31% and the “Threshold ± S.E.M.” value ([8]; 6.0 h) was 5.34 ± 1.32 g. For the same compound, the “SNL TPE” value ([8]; ip) was 2 h, the “SNL: active at” value ([8]; ip, von Frey test) was 6.0 mg/kg and 6 mg/kg and the t0.5λz ([9]; Brain) was 28.56 min. It also gave a t0.5λz ([9]; Heart) of 41.30 min, a t0.5λz ([9]; Kidneys) of 16.23 min and a t0.5λz ([9]; Liver) of 41.99 min. The t0.5λz ([9]; Lungs) was 30.84 min, the “concentration in rat brain (approximated)” value ([9]; 2 h after iv, tissue density 1 g/mL assumed) was ~2.2*10^–7 M and the concentration at 2 h ([9]; male, Wistar, rat, brain, 5 mg/kg, 2 h after iv administration) was 64.9 ng/g. It also gave a Cmax ([9]; male, Wistar, rat, Brain) of 1770 ng/g, an MRT ([9]; male, Wistar, rat, Brain) of 37.9 min and a Tmax ([9]; male, Wistar, rat, Brain) of 5 min. For the same compound, the Kp ([9]; male, Wistar, rat, Brain) was 0.83, the k el ([9]; male, Wistar, rat, Brain) was 0.0004 s⁻¹ and the Cmax ([9]; male, Wistar, rat, Heart) was 494 ng/g. The MRT ([9]; male, Wistar, rat, Heart) was 58.5 min, the Tmax ([9]; male, Wistar, rat, Heart) was 15 min and the Kp ([9]; male, Wistar, rat, Heart) was 0.38. It also gave a k el ([9]; male, Wistar, rat, Heart) of 0.000283 s⁻¹, a Cmax ([9]; male, Wistar, rat, Kidneys) of 1950 ng/g and an MRT ([9]; male, Wistar, rat, Kidneys) of 25.3 min. The Tmax ([9]; male, Wistar, rat, Kidneys) was 5 min, the Kp ([9]; male, Wistar, rat, Kidneys) was 0.62 and the k el ([9]; male, Wistar, rat, Kidneys) was 0.000717 s⁻¹. The Cmax ([9]; male, Wistar, rat, Liver) was 161 ng/g, the MRT ([9]; male, Wistar, rat, Liver) was 113 min and the Tmax ([9]; male, Wistar, rat, Liver) was 5 min. It also gave a Kp ([9]; male, Wistar, rat, Liver) of 0.14, a k el ([9]; male, Wistar, rat, Liver) of 0.000283 s⁻¹ and a Cmax ([9]; male, Wistar, rat, Lungs) of 4350 ng/g. The MRT ([9]; male, Wistar, rat, Lungs) was 46.9 min, the Tmax ([9]; male, Wistar, rat, Lungs) was 5 min and the Kp ([9]; male, Wistar, rat, Lungs) was 1.76. For the same compound, the k el ([9]; male, Wistar, rat, Lungs) was 0.000383 s⁻¹, the “elevation of pain threshold (von Frey)” value ([10]; 1 mg/kg) was 132% and the “elevation of pain threshold (von Frey)” value ([10]; 10 mg/kg) was 125%. For the same compound, the “STZ-induced pain (von Frey): active at” value ([10]; mice, ip) was 1 mg/kg, the TD50 [11] was 54.3 mg/kg and the viability at 24 h, 250 µM [12] was 81%. It also gave an IC50 ([13]; 10 Hz) of 4.85 µM, an IC50 ([13]; Inactivated state) of less than 10 µM and an IC50 ([13]; Tonic block) of 47.9 µM. For the same compound, the activity at 100 µM [14] was 26.1%, the IC50 [15] was 12 µM and the Ki [15] was 3.3 µM. The “% of control specific binding” value ([15]; 0.01 μM) was 102.4%, the “% of control specific binding” value ([15]; 0.1 μM) was 97.3% and the “% of control specific binding” value ([15]; 1 μM) was 90.0%. The “% of control specific binding” value ([15]; 10 μM) was 55.9% and the “% of control specific binding” value ([15]; 100 μM) was 12.8%.

Source: paper PMC9889419 (Pharmacological Reports, 2022)
